Where two headings read alike, the source gives them in different places.
Key:
ER in MCF-7 cells = ER in MCF-7 cells (Homo sapiens (Human), UniProt P03372); test: In-cell Western (ICW) ER degradation assay in MCF-7 cells; format: cell-based; settings: for DC50: MCF-7, ER degradation, read-out: MCF7 DC50
Description: (§1) In-cell Western (ICW) assays in MCF-7 and T47D cell lines.
(§2) Day 3: After 16 hrs of compounds treatment, cells were fixed by 4% PFA and permeabilized with elution buffer (0.1% Triton X-100 in 1% PBS Solution). Subsequently, cells were blocked with Intercept (PBS) Blocking Buffer (Li-COR, Odyssey Blocking Buffer), and were stained with ER (1:500, Cell signaling) primary antibody for overnight at cold room.
(§3) Day 4: Remove the buffer, add IRDye 800CW Goat anti-Rabbit IgG Secondary Antibody (1:2000) and CellTag 700 Stain (1:500) in Intercept (PBS) Blocking Buffer. Finally, cell plate is placed in incubator to dry. Image and signal were captured on Odyssey® DLx Imaging System.

ER in T47D cells = ER in T47D cells (Homo sapiens (Human), UniProt P03372); test: In-cell Western (ICW) ER degradation assay in T47D cells; format: cell-based; settings: for DC50: ER degradation
Description: as §1, §2, §3

[1] = MCF7, read-out: MCF7 Dmax, MCF-7, maximal ER degradation, 16 hrs treatment
[2] = maximal ER degradation, 16 hrs treatment, read-out: T47D Dmax
[3] = MCF7, MCF-7, maximal ER degradation, 16 hrs treatment, read-out: MCF7 Dmax
[4] = read-out: T47D Dmax, T47D, maximal ER degradation, 16 hrs treatment

Sequence of ER in MCF-7 cells (P03372 whole entry): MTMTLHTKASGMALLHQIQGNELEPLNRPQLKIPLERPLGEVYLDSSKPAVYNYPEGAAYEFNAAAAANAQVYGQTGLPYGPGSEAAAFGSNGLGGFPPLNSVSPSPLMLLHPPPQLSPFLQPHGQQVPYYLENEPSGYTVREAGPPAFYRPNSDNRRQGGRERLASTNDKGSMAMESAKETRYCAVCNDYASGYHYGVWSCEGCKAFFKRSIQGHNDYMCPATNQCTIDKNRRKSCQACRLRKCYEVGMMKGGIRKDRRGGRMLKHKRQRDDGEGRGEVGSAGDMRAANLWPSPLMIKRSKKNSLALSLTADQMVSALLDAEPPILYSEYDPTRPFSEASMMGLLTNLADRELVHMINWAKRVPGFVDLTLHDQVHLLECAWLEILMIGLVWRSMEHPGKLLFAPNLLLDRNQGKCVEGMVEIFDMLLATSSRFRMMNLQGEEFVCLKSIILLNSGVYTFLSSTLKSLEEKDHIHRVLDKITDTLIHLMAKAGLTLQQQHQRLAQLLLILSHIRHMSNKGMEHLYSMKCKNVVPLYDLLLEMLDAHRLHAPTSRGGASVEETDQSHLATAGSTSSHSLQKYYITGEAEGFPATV
Sequence of ER in T47D cells (P03372 whole entry): as above

Structure (SMILES)	DC50 (ER in MCF-7 cells; 16 hrs treatment) [nM]	DC50 (ER in T47D cells; 16 hrs treatment) [nM]	Dmax (ER in T47D cells; [2]) [%]	Dmax (ER in MCF-7 cells; [3]) [%]	Dmax (ER in MCF-7 cells; [1]) [%]	Dmax (ER in T47D cells; [4]) [%]
COc1cc(N2CCC(CN3CCN4c5cc6c(cc5OC[C@@H]4C3)C(=O)N([C@H]3CCC(=O)NC3=O)C6)CC2)ccc1[C@H]1c2ccc(O)cc2CC[C@H]1c1ccccc1 (single isomer, unassigned) [Compound A21]	10 to 100	1 to 10	50 to 75	–	50 to 75	–
COc1cc(N2CCC(CN3CCC(c4ccc(N[C@@H]5CCC(=O)NC5=O)cc4F)CC3)CC2)ccc1[C@@H]1c2ccc(O)cc2CC[C@@H]1c1ccccc1 (single isomer, unassigned) [Compound A85]	< 1	< 1	50 to 75	25 to 50	–	–
COc1cc(N2CCC(CN3CCC(c4ccc(N[C@H]5CCC(=O)NC5=O)cc4)CC3)CC2)ccc1[C@@H]1c2ccc(O)cc2CC[C@@H]1c1ccccc1 (single isomer, unassigned) [Compound A86]	1 to 10	10 to 100	25 to 50	< 25	–	–
COc1cc(N2CCC(CN3CCC(c4ccc(N[C@@H]5CCC(=O)NC5=O)cc4)CC3)CC2)ccc1[C@@H]1c2ccc(O)cc2CC[C@@H]1c1ccccc1 (single isomer, unassigned) [Compound A87]	< 1	< 1	25 to 50	25 to 50	–	–
COc1cc([C@H]2c3ccc(O)cc3CC[C@H]2c2ccccc2)c(F)cc1N1CCC2(CC1)CC(CN1CCN3c4ccc5c(c4OC[C@H]3C1)CN([C@H]1CCC(=O)NC1=O)C5=O)C2 (single isomer, unassigned) [Compound A102]	–	1 to 10	–	–	–	> 75
COc1cc([C@@H]2c3ccc(O)cc3CC[C@@H]2c2ccccc2)c(F)cc1N1CCC2(CC1)CC(CN1CCN3c4ccc5c(c4OC[C@H]3C1)CN([C@H]1CCC(=O)NC1=O)C5=O)C2 (single isomer, unassigned) [Compound A103]	–	10 to 100	–	–	–	50 to 75
O=C1CC[C@H](N2Cc3c(ccc4c3OC[C@H]3CN(CC5CCC6(CC5)CN(c5ccc([C@@H]7c8ccc(O)cc8CC[C@@H]7c7ccccc7)cn5)C6)CCN43)C2=O)C(=O)N1 (single isomer, unassigned) [Compound A123, (S)-3-((R)-7-((2-(5-((1S,2S)-6-hydroxy-2-phenyl-1,2,3,4-tetrahydronaphthalen-1-yl)pyridin-2-yl)-2-azaspiro[3.5]nonan-7-yl)methyl)-1-oxo-1,3,5,5a,6,7,8,9-octahydro-2H-pyrazino[1′,2′: 4,5][1,4]oxazino[2,3-e]isoindol-2-yl)piperidine-2,6-dione]	< 1	< 1	–	–	–	–
COc1cc(N2CC3(CCC(CN4CCN5c6cc7c(cc6OC[C@@H]5C4)C(=O)N([C@H]4CCC(=O)NC4=O)C7)CC3)C2)c(F)cc1[C@H]1c2ccc(O)cc2CC[C@H]1c1ccccc1 [Compound A169, (S)-3-((S)-3-((2-(2-fluoro-4-((1R,2R)-6-hydroxy-2-phenyl-1,2,3,4-tetrahydronaphthalen-1-yl)-5-methoxyphenyl)-2-azaspiro[3.5]nonan-7-yl)methyl)-8-oxo-1,2,3,4,4a,5,8,10-octahydro-9H-pyrazino[1′,2′: 4,5][1,4]oxazino[2,3-f]isoindol-9-yl)piperidine-2,6-dione]	10 to 100	–	–	25 to 50	–	–
COc1cc(N2CC3(CCC(CN4CCC5(CC4)COc4cc6c(cc45)CN([C@H]4CCC(=O)NC4=O)C6=O)CC3)C2)c(F)cc1[C@H]1c2ccc(O)cc2CC[C@H]1c1ccccc1 [Compound A172, (S)-3-(1′-((2-(2-fluoro-4-((1R,2R)-6-hydroxy-2-phenyl-1,2,3,4-tetrahydronaphthalen-1-yl)-5-methoxyphenyl)-2-azaspiro[3.5]nonan-7-yl)methyl)-7-oxo-5,7-dihydro-2H,6H-spiro[furo[2,3-f]isoindole-3,4′-piperidin]-6-yl)piperidine-2,6-dione]	10 to 100	–	–	–	25 to 50	–
O=C1CC[C@H](N2Cc3cc4c(cc3C2=O)OCC42CCN(CC3CC4(CCN(c5ccc([C@@H]6c7ccc(O)cc7CC[C@@H]6c6ccccc6)cc5)CC4)C3)CC2)C(=O)N1 [Compound A182, (S)-3-(1′-((7-(4-((1R,2S)-6-hydroxy-2-phenyl-1,2,3,4-tetra-hydronaphthalen-1-yl)phenyl)-7-azaspiro[3.5]nonan-2-yl)-methyl)-7-oxo-5,7-dihydro-2H, 6H-spiro[furo[2,3-f]isoindole-3,4′-piperidin]-6-yl)piperidine-2,6-dione]	< 1	–	–	–	50 to 75	–
O=C1CC[C@H](N2Cc3c(ccc4c3OCC43CCN(CCCOC4CN(c5ccc([C@@H]6c7ccc(O)cc7CC[C@@H]6c6ccccc6)cc5)C4)CC3)C2=O)C(=O)N1 [Compound A183, (S)-3-(1′-(3-((1-(4-((1R,2S)-6-hydroxy-2-phenyl-1,2,3,4-tetra-hydronaphthalen-1-yl)phenyl)-azetidin-3-yl)oxy)propyl)-6-oxo-6,8-dihydro-2H,7H-spiro [furo[2,3-e]isoindole-3,4′-piperidin]-7-yl)piperidine-2,6-dione]	< 1	–	–	–	50 to 75	–
COc1cc(N2CC3(CC(CN4CCC5(CC4)COc4c5ccc5c4CN(C4CCC(=O)NC4=O)C5=O)C3)C2)c(F)cc1[C@@H]1c2ccc(O)cc2CC[C@@H]1c1ccccc1 (stereo partly drawn) [Compound A184, (S)-3-(1′-((2-(2-fluoro-4-((1S, 2S)-6-hydroxy-2-phenyl-1,2,3,4-tetrahydronaphthalen-1-yl)-5-methoxyphenyl)-2-aza-spiro[3.3]heptan-6-yl)methyl)-6-oxo-6,8-dihydro-2H,7H-spiro[furo[2,3-e]isoindole-3,4′-piperidin]-7-yl)piperidine-2,6-dione]	< 1	–	–	–	–	–
O=C1CC[C@H](N2Cc3cc4c(cc3C2=O)OCC42CCN(CC3CCN(c4ccc([C@@H]5c6ccc(O)cc6CC[C@@H]5c5ccccc5)cc4)CC3)CC2)C(=O)N1 [Compound A186, (S)-3-(1′-((1-(4-((1R,2S)-6-hydroxy-2-phenyl-1,2,3,4-tetra-hydronaphthalen-1-yl)phenyl)-piperidin-4-yl)methyl)-7-oxo-5,7-dihydro-2H,6H-spiro[furo [2,3-f]isoindole-3,4′-piperidin]-6-yl)piperidine-2,6-dione]	< 1	–	–	–	50 to 75	–
COc1cc(N2CCC3(CC2)CC(CN2CCC4(CC2)COc2nc(C(=O)N[C@H]5CCC(=O)NC5=O)ccc24)C3)c(F)cc1[C@@H]1c2ccc(O)cc2CC[C@@H]1c1ccccc1 [Compound A190, N-((S)-2,6-dioxopiperidin-3-yl)-1′-((7-(2-fluoro-4-((1S,2S)-6-hydroxy-2-phenyl-1,2,3,4-tetrahydronaphthalen-1-yl)-5-methoxyphenyl)-7-azaspiro [3.5]nonan-2-yl)methyl)-2H-spiro[furo[2,3-b]pyridine-3,4′-piperidine]-6-carboxamide]	< 1	–	–	–	50 to 75	–

More lines, main results first:

DC50 (ER in MCF-7 cells; 16 hrs treatment) [nM]	DC50 (ER in T47D cells; 16 hrs treatment) [nM]	Dmax (ER in T47D cells; [2]) [%]	Dmax (ER in MCF-7 cells; [3]) [%]	Structure (SMILES)	Dmax (ER in MCF-7 cells; [1]) [%]	Dmax (ER in T47D cells; [4]) [%]
10 to 100	10 to 100	25 to 50	25 to 50	COc1cc(N2CCC3(CC2)CC(CN2CCC(c4ccc(N[C@@H]5CCC(=O)NC5=O)cc4)CC2)C3)c(F)cc1[C@H]1c2ccc(O)cc2CC[C@H]1c1ccccc1 (single isomer, unassigned) [Compound A46]	–	–
< 1	< 1	50 to 75	50 to 75	COc1cc(N2CCC3(CC2)CC(CN2CCC(c4ccc(N[C@H]5CCC(=O)NC5=O)cc4)CC2)C3)ccc1[C@@H]1c2ccc(O)cc2CC[C@@H]1c1ccccc1 (single isomer, unassigned) [Compound A96]	–	–
< 1	1 to 10	50 to 75	50 to 75	COc1cc(N2CCC3(CC2)CC(CN2CCC(c4ccc(N[C@H]5CCC(=O)NC5=O)cc4F)CC2)C3)ccc1[C@@H]1c2ccc(O)cc2CC[C@@H]1c1ccccc1 (single isomer, unassigned) [Compound A105]	–	–
< 1	< 1	50 to 75	50 to 75	COc1cc(N2CCC3(CC2)CC(CN2CCC(c4ccc(N[C@@H]5CCC(=O)NC5=O)cc4)CC2)C3)ccc1[C@@H]1c2ccc(O)cc2CC[C@@H]1c1ccccc1 (single isomer, unassigned) [Compound A110]	–	–
–	> 100	< 25	–	O=C1CC[C@H](NC(=O)c2ccc3c(n2)OC[C@H]2CN(CC4CC5(CCN(c6ccc([C@H]7c8ccc(O)cc8CC[C@H]7c7ccccc7)cn6)CC5)C4)CCN32)C(=O)N1 (single isomer, unassigned) [Compound A114]	–	–
–	1 to 10	> 75	–	O=C1CC[C@H](NC(=O)c2ccc3c(n2)OC[C@H]2CN(CC4CC5(CCN(c6ccc([C@@H]7c8ccc(O)cc8CC[C@@H]7c7ccccc7)cn6)CC5)C4)CCN32)C(=O)N1 (single isomer, unassigned) [Compound A115]	–	–
< 1	1 to 10	> 75	> 75	O=C1CC[C@H](N2Cc3c(ccc4c3OC[C@H]3CN(CC5CC6(CCN(c7ncc([C@@H]8c9ccc(O)cc9CC[C@@H]8c8ccccc8)cn7)CC6)C5)CCN43)C2=O)C(=O)N1 (single isomer, unassigned) [Compound A140]	–	–
< 1	1 to 10	> 75	> 75	O=C1CC[C@H](N2Cc3c(ccc4c3OC[C@H]3CN(CC5CC6(CCN(c7ccc([C@H]8c9ccc(O)cc9CC[C@H]8c8ccccc8)cc7F)CC6)C5)CCN43)C2=O)C(=O)N1 (single isomer, unassigned) [Compound A147]	–	–
